Results published in patent US7799524B2, “Substrates for O6-alkylguanina-DNA alkyltransferase” (Ecole Polytechnique Ferdeale de Lausanne, priority 2002, dated 2010).
Changes are numbered by the printed parent chain.

Columns and labels:
hAGT = target: T1, hAGT (Homo sapiens, UniProt P16455); settings: reaction with hAGT; cited from earlier work
T1 sequence (P16455 1-207): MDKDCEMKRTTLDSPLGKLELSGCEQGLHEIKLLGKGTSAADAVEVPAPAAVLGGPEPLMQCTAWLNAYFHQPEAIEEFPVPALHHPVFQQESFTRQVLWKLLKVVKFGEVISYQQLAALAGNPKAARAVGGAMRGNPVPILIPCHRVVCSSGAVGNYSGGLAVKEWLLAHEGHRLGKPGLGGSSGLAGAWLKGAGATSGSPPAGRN

^PGEAhAGT-GST [1] = target: T2, ^PGEAhAGT-GST (Homo sapiens, UniProt P16455, G160A/N157G/S159E); experiment: Reactivity with hAGT fusion protein: pre-incubation with compound, then biotinylated O^6-benzylguanine-oligonucleotide, Western Blot (anti-biotin); assay type: biochemical; settings: 18 pmol protein, 0.2 μL of 5 mM compound in 15 μL 50 mM HEPES pH 7.5, 1 h, then 10 pmol biotinylated oligonucleotide 15 min
T2 sequence (P16455 1-207 N157G/S159E/G160A): T1 sequence (P16455 1-207) with N157G, S159E, G160A
Method: Lane marked “C” (control): The reaction product of ^[…] and the biotinylated O^6-benzylguanine oligonucleotide. […] Damoiseaux et al., ChemBiochem 4: 285-287, 2001) is added, and the reaction is allowed to continue for further 15 min. As a control 18 pmol ^[…] are incubated with 10 pmol of the same biotinylated oligonucleotide in a total volume of 15 μL of 50 mM HEPES pH 7.5 for 15 min without any substrate. Detection of the biotinylated reaction product between ^[…] and the biotinylated oligonucleotide is performed by Western Blotting using an anti-biotin conjugate coupled to HRP (Pierce).

^PGEAhAGT-GST [2] = target: T2, ^PGEAhAGT-GST; experiment: Labelling of hAGT fusion protein, Western Blot with anti-fluorescein antibody; assay type: biochemical; settings: 18 pmol ^PGEAhAGT-GST, 0.5 nmol compound, 15 μL 50 mM HEPES pH 7.5
Method: Lanes 1 and 2 (two different concentrations) show the reaction product of compound 60 bearing a fluorescein label and a biotin label (a compound of formula 1 wherein L is a plurality of labels) with ^PGEAhAGT-GST.
18 pmol ^PGEAhAGT-GST are incubated with 0.5 nmol 60 in a total volume of 15 μL of 50 mM HEPES pH 7.5. The reaction product is detected by Western Blotting using a goat anti-fluorescein antibody (Rockland) and a HRP conjugated anti-goat antibody (Sigma).

GST-^3HYhAGT = target: T3, GST-^3HYhAGT (Homo sapiens, UniProt P16455, A127T/K125A/N157G/R128A/S159E); experiment: In vitro reactivity against GST-^3HYhAGT followed by Western Blotting with anti-methotrexate antibody; assay type: biochemical
T3 construct: made in house; host or cells: E. coli
T3 sequence (P16455 1-207 K125A/A127T/R128A/N157G/S159E): T1 sequence (P16455 1-207) with K125A, A127T, R128A, N157G, S159E
Method: GST-^3HYhAGT is incubated with an excess of 78 or 79 and the reaction is followed by Western Blotting using an anti-methotrexate antibody. […] Accordingly, at concentrations of 78 of 1 μM and at an excess of 78 over ^3HYhAGT (pseudo first-order conditions), 50% of the protein is labelled in less than 10 min.
For the construction of hAGT fusion proteins, preferably the mutant Asn157Gly Ser159Glu is used. […] The rationale behind the introduction of these mutations is to minimize the interaction of hAGT fusion proteins with DNA in the three-hybrid system. The resulting hAGT mutant carrying the five mutations described above is abbreviated as ^3HYhAGT.

[3] = tested on: yeast L40 expressing LexA and B42 fusion proteins of ^3HYhAGT and DHFR; experiment: Growth assay of yeast L40 strains on plates lacking histidine (HIS3 reporter, three-hybrid system); assay type: cell-based; settings: for Growth rate: plates lacking histidine
Method: Pairs of plasmids encoding LexA-^3HYhAGT and B42-DHFR fusion proteins are transformed into the yeast strain L40 in which the reconstitution of functional LexA-B42 transcription factor leads to transcription of the reporter genes HIS3 and lacZ. It is tested if the expression of different combinations of fusion protein in the presence of either 78 or 79 complemented the histidine auxotrophy of the yeast L40 (Table 1). […] No growth is observed in the absence of 78 or 79.
In principal, the reconstitution of functional transcription factor through benzyl guanine 78 and 79 is independent of which ligand-binding protein is fused to LexA and which to B42. To verify this assumption the growth of yeast L40 co-expressing LexA-DHFR and B42-^3HYhAGT on plates lacking histidine but containing compounds 78 or 79 is examined.

[4] = tested on: yeast strain L40 expressing LexA and B42 fusion proteins of ^3HYhAGT and DHFR; experiment: Quantitative β-galactosidase assay using ONPG (lacZ reporter) in yeast L40; assay type: cell-based; settings: 1 μM, cell extracts of liquid cultures
Method: The activation of transcription of the lacZ reporter gene by the benzyl guanine based compounds 78 and 79 in the yeast strain L40 expressing different combinations of LexA and B42 fusion proteins is examined (Table 2). In this assay, the activity of the product of the lacZ gene, β-galactosidase, is determined by measuring the hydrolysis rate of the chromogenic substrate o-nitrophenyl-β-D-galactopyranoside (ONPG) in cell extracts of liquid cultures.

[5] = co-expression of LexA-DHFR and B42-^3HYhAGT
[6] = co-expression of LexA-^3HYhAGT and B42-DHFR

For Nc1nc(OCc2ccccc2)c2nc[nH]c2n1 [O^6-benzylguanine], the “second order rate constant” value (hAGT) is given as “approximately 10^3 sec^−1 M^−1”.

For NCCOCCOCCOCCn1cc(COc2nc(N)nc3[nH]cnc23)nn1 [compound 11, O^6-(1-[11-Amino-3,6,9-trioxaundecyl]-1,2,3-triazolyl-4-methyl)guanine], the “reaction of ^PGEAhAGT-GST with biotinylated oligonucleotide after first reacting with the compound” value (^PGEAhAGT-GST [1]) was “no further reaction with biotinylated oligonucleotide is observed”.

For Nc1nc(OCc2ccc(COCCOCCOCCOCCNC(=O)C(CCCCNC(=O)CCCCCNC(=O)c3ccc(-c4c5ccc(=O)cc-5oc5cc(O)ccc45)c(C(=O)O)c3)NC(=O)CCCCCNC(=O)CCCC[C@H]3SC[C@H]4NC(=O)N[C@H]43)cc2)c2nc[nH]c2n1 (stereo partly drawn) [compound 60, O^6-Benzylguanine-PEG-amino-α-N-(biotinyl-6-aminocaproyl)-ε-N-(6-[fluorescein-5-carbonyl]-aminocaproyl)-lysine], the “substrate for hAGT (reaction product detected by Western Blotting)” value (^PGEAhAGT-GST [2]) was “efficient substrate for hAGT”.

For CN(Cc1cnc2nc(N)nc(N)c2n1)c1ccc(C(=O)N[C@@H](CCC(=O)NCCCCCCCCCCCC(=O)NCc2ccc(COc3nc(N)nc4[nH]cnc34)cc2)C(=O)O)cc1 [compound 78], the “time in which 50% of the protein is labelled” value (GST-^3HYhAGT; 1 μM 78, excess over ^3HYhAGT, pseudo first-order conditions) was “less than 10 min”, the kinact/KI (GST-^3HYhAGT; GST-^3HYhAGT incubated with an excess of compound, read-out: second-order rate constant) was about 1500 M⁻¹ s⁻¹ and the Growth rate ([3]; LexA-DHFR/ B42-^3HYhAGT, 1 μM) was “++ (detection of colonies within 3 days)”. For the same molecule, the Growth rate ([3]; LexA-^3HYhAGT/ B42-DHFR, 1 μM) was “+++ (detection of colonies within 2 days)”, the “growth of yeast L40 on plates lacking histidine (in words)” value (from here on “growth of yeast L40”) [3, 5] was “growth dependent on compounds 78 or 79 is observed” and the “growth of yeast L40” value [3, 6] was “allows yeast L40 to grow on plates lacking histidine”. For the same molecule, the ONPG hydrolysis ([4]; LexA-DHFR/ B42-^3HYhAGT) was 28 nM of o-nitrophenol formed per min per mg total protein and the ONPG hydrolysis ([4]; LexA-^3HYhAGT/ B42-DHFR) was 865 nM of o-nitrophenol formed per min per mg total protein.

In the case of CN(Cc1cnc2nc(N)nc(N)c2n1)c1ccc(C(=O)NC(CCC(=O)NCCOCCOCCOCCOCc2ccc(COc3nc(N)nc4nc[nH]c34)cc2)C(=O)O)cc1 (stereo not drawn) [compound 79, O^6-4-[13-N-(4-{4-[N-(2,4-Diamino-6-pteridinylmethyl)-methylamino]-benzoyl-amino}-4-carboxybutanoyl)-amino-2,5,8,11-tetraoxatridecyl]-benzyl guanine], the second-order rate constant (GST-^3HYhAGT; GST-^3HYhAGT incubated with an excess of compound) is reported as about 900 sec^−1M^−1, the Growth rate ([3]; LexA-DHFR/ B42-^3HYhAGT, 10 μM) is reported as “++ (detection of colonies within 3 days)” and the Growth rate ([3]; LexA-^3HYhAGT/ B42-DHFR, 10 μM) is reported as “+++ (detection of colonies within 2 days)”. The “growth of yeast L40” value [3, 5] was “growth dependent on compounds 78 or 79 is observed”, the “growth of yeast L40” value [3, 6] was “allows yeast L40 to grow on plates lacking histidine” and the ONPG hydrolysis ([4]; LexA-DHFR/ B42-^3HYhAGT) was 24 nM of o-nitrophenol formed per min per mg total protein. For the same molecule, the ONPG hydrolysis ([4]; LexA-^3HYhAGT/ B42-DHFR) was 63 nM of o-nitrophenol formed per min per mg total protein.
